Data on 20 compounds can be found in PubChem BioAssay AID248 (DTP/NCI, 2004).

Several values for one entry are separate records, joined by “and”; a condition that tells them apart may be missing. Identical values can stand only once. Inconclusive results and toxic doses are left out.

For this test, the system named is L1210 leukemia ip in BDF1 mice, survival T/C. Briefly: NCI In Vivo Anticancer Drug Screen. Data for tumor model L1210 Leukemia (intraperitoneal) in B6D2F1 (BDF1) mice. The note with it: endpoint: mean survival time, higher = longer survival. A digest of the protocol:
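Antitumor effect is assessed in tumor-bearing animals. Survival in the compound arm is compared with a vehicle-dosed control arm and expressed as their quotient.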

[1] abbreviates: dose: 100.0 mg/kg/injection, schedule: Q04DX003 (ip), vehicle: saline with Tween-80.
The mark [2] stands for this setting: dose: 200.0 mg/kg/injection, schedule: Q04DX003 (ip), vehicle: saline with Tween-80.
Where [3] appears, read: dose: 100.0 mg/kg/injection, schedule: Q01DX009 (ip), vehicle: Klucel (hydroxypropylcellulose) (HPC).
[4] abbreviates: dose: 100.0 mg/kg/injection, schedule: Q04DX003 (ip), vehicle: Klucel (hydroxypropylcellulose) (HPC).
[5] abbreviates: dose: 200.0 mg/kg/injection, schedule: Q04DX003 (ip), vehicle: Klucel (hydroxypropylcellulose) (HPC).
[6] abbreviates: dose: 100.0 mg/kg/injection, schedule: Q01DX001 (ip), vehicle: saline.
[7] abbreviates: dose: 200.0 mg/kg/injection, schedule: Q01DX001 (ip), vehicle: saline.
Where [8] appears, read: dose: 400.0 mg/kg/injection, schedule: Q01DX001 (ip), vehicle: saline.
Where [9] appears, read: dose: 100.0 mg/kg/injection, schedule: Q04DX002 (ip), vehicle: Klucel (hydroxypropylcellulose) (HPC).
[10] abbreviates: dose: 200.0 mg/kg/injection, schedule: Q04DX002 (ip), vehicle: Klucel (hydroxypropylcellulose) (HPC).
[11] abbreviates: dose: 400.0 mg/kg/injection, schedule: Q04DX002 (ip), vehicle: Klucel (hydroxypropylcellulose) (HPC).
[12] abbreviates: dose: 100.0 mg/kg/injection, schedule: Q04DX003 (ip), vehicle: saline sonified.
Setting [13] is: dose: 200.0 mg/kg/injection, schedule: Q04DX003 (ip), vehicle: saline sonified.
The mark [14] stands for this setting: dose: 400.0 mg/kg/injection, schedule: Q04DX003 (ip), vehicle: saline sonified.
Setting [15] is: dose: 400.0 mg/kg/injection, schedule: Q04DX003 (ip), vehicle: Klucel (hydroxypropylcellulose) (HPC).
[16] abbreviates: dose: 100.0 mg/kg/injection, schedule: Q01DX001 (ip), vehicle: saline with Tween-80.

Regarding `COC(=O)CCC(C)C1CCC2C3C(O)CC4CC(OC(C)=O)CCC4(C)C3CC(O)C12C` (stereo not given), the T/C (dose: 50.0 mg/kg/injection, schedule: Q01DX009 (ip), vehicle: carboxymethylcellulose (CMC)) was 102 % of control and 103 % of control; the T/C (dose: 50.0 mg/kg/injection, schedule: Q04DX003 (ip), vehicle: carboxymethylcellulose (CMC)) is 95 % of control; the T/C (dose: 100.0 mg/kg/injection, schedule: Q01DX009 (ip), vehicle: carboxymethylcellulose (CMC)) is 95 % of control and 98 % of control; the T/C (dose: 100.0 mg/kg/injection, schedule: Q04DX002 (ip), vehicle: carboxymethylcellulose (CMC)) is 96 % of control and 101 % of control; the T/C (dose: 100.0 mg/kg/injection, schedule: Q04DX003 (ip), vehicle: carboxymethylcellulose (CMC)) was 95 % of control; the T/C (dose: 200.0 mg/kg/injection, schedule: Q01DX009 (ip), vehicle: carboxymethylcellulose (CMC)) is 88 % of control and 92 % of control. Besides, the T/C (dose: 200.0 mg/kg/injection, schedule: Q04DX002 (ip), vehicle: carboxymethylcellulose (CMC)) was 96 % of control and 91 % of control; the T/C (dose: 200.0 mg/kg/injection, schedule: Q04DX003 (ip), vehicle: carboxymethylcellulose (CMC)) was 88 % of control; the T/C (dose: 400.0 mg/kg/injection, schedule: Q04DX002 (ip), vehicle: carboxymethylcellulose (CMC)) is 86 % of control and 91 % of control.

On to `O=c1[nH]ccc2c(O)cccc12`, for which the T/C reads like this: (dose: 50.0 mg/kg/injection, schedule: Q01DX009 (ip), vehicle: saline with Tween-80) 95 % of control; (dose: 50.0 mg/kg/injection, schedule: Q04DX003 (ip), vehicle: saline with Tween-80) 101 % of control; (dose: 100.0 mg/kg/injection, schedule: Q01DX009 (ip), vehicle: saline with Tween-80) 97 % of control; under setting [1], 101 % of control; (dose: 200.0 mg/kg/injection, schedule: Q01DX009 (ip), vehicle: saline with Tween-80) 90 % of control; under setting [2], 94 % of control.

Turning to `O=C(N/N=C\c1ccc(F)cc1)N/N=C/c1ccc(F)cc1`, the T/C was 93 % of control (dose: 100.0 mg/kg/injection, schedule: Q04DX002 (ip), vehicle: saline with Tween-80); 96 % of control (dose: 200.0 mg/kg/injection, schedule: Q04DX002 (ip), vehicle: saline with Tween-80); 104 % of control (dose: 400.0 mg/kg/injection, schedule: Q04DX002 (ip), vehicle: saline with Tween-80).

Take `CN(Cc1ccccc1)C(=O)c1cccc(C(=O)N(C)Cc2ccccc2)c1`: the T/C (dose: 100.0 mg/kg/injection, schedule: Q01DX009 (ip), vehicle: other) was 97 % of control; the T/C (dose: 200.0 mg/kg/injection, schedule: Q01DX009 (ip), vehicle: other) is 97 % of control; the T/C (dose: 400.0 mg/kg/injection, schedule: Q01DX009 (ip), vehicle: other) was 94 % of control.

As for `O=C(N/N=C/c1ccc(N(CCCl)CCCl)cc1)c1ccc(C(=O)N/N=C/c2ccc(N(CCCl)CCCl)cc2)cc1`, the T/C by setting is: (dose: 50.0 mg/kg/injection, schedule: Q01DX009 (ip), vehicle: Klucel (hydroxypropylcellulose) (HPC)) 98 % of control; under setting [3], 90 % of control; under setting [4], 95 % of control; under setting [5], 100 % of control.

As for `CCOC(=O)C(C#N)=C([SH2+])[SH2+].CCOC(=O)C(C#N)=C([SH2+])[SH2+].[Cu+2].c1ccc(C[P+](c2ccccc2)(c2ccccc2)c2ccccc2)cc1`, the T/C by setting is: under setting [6], 92 % of control; (dose: 100.0 mg/kg/injection, schedule: Q04DX003 (ip), vehicle: saline) 102 % of control; under setting [7], 87 % of control; (dose: 200.0 mg/kg/injection, schedule: Q04DX003 (ip), vehicle: saline) 97 % of control; under setting [8], 89 % of control; (dose: 400.0 mg/kg/injection, schedule: Q04DX003 (ip), vehicle: saline) 91 % of control.

In the case of `COc1cc(C=Nc2ccc3c(c2)nc(C)n3C)ccc1N(CCCl)CCCl`, the T/C by setting is: under setting [9], 165 % of control; under setting [10], 120 % of control; under setting [11], 89 % of control.

On to `O=S(=O)(CCCl)c1ccc(Br)cc1`, for which the T/C reads like this: under setting [9], 101 % of control; under setting [10], 97 % of control; under setting [11], 101 % of control.

For the compound `CC(=O)Nc1cccc(Cl)c1C`, the T/C is 97 % of control (dose: 100.0 mg/kg/injection, schedule: Q01DX009 (ip), vehicle: saline sonified); 95 % of control under setting [12]; 91 % of control (dose: 200.0 mg/kg/injection, schedule: Q01DX009 (ip), vehicle: saline sonified); 95 % of control under setting [13]; 91 % of control (dose: 400.0 mg/kg/injection, schedule: Q01DX009 (ip), vehicle: saline sonified); 97 % of control under setting [14].

On to `CN(C)C=Nc1ccc(Cl)c2ccccc12`, for which the T/C (dose: 100.0 mg/kg/injection, schedule: Q01DX001 (ip), vehicle: Klucel (hydroxypropylcellulose) (HPC)) is 99 % of control; the T/C under setting [4] is 98 % of control; the T/C (dose: 200.0 mg/kg/injection, schedule: Q01DX001 (ip), vehicle: Klucel (hydroxypropylcellulose) (HPC)) was 96 % of control; the T/C under setting [5] is 101 % of control; the T/C (dose: 400.0 mg/kg/injection, schedule: Q01DX001 (ip), vehicle: Klucel (hydroxypropylcellulose) (HPC)) was 97 % of control.

As for `Nc1nc(CCl)cs1`, the T/C (dose: 25.0 mg/kg/injection, schedule: Q04DX003 (ip), vehicle: Klucel (hydroxypropylcellulose) (HPC)) was 103 % of control; the T/C (dose: 50.0 mg/kg/injection, schedule: Q04DX003 (ip), vehicle: Klucel (hydroxypropylcellulose) (HPC)) was 95 % of control; the T/C under setting [4] is 98 % of control and 100 % of control.

Regarding `NC(=O)C1C2C=CC(CC2)C1C(N)=O` (stereo not given), the T/C under setting [1] was 91 % of control; the T/C under setting [2] was 96 % of control; the T/C (dose: 400.0 mg/kg/injection, schedule: Q04DX003 (ip), vehicle: saline with Tween-80) is 91 % of control.

Take `CCCCCCCCCCCCCCCCCC1=NC(C)(CO)CO1` (stereo not given): the T/C is 102 % of control under setting [4], 96 % of control under setting [5] and 107 % of control under setting [15].

Consider `Nc1nc(N)c2c(n1)CNC2`, for which the T/C (dose: 100.0 mg/kg/injection, schedule: Q01DX001 (ip), vehicle: carboxymethylcellulose (CMC)) was 112 % of control; the T/C (dose: 200.0 mg/kg/injection, schedule: Q01DX001 (ip), vehicle: carboxymethylcellulose (CMC)) was 112 % of control; the T/C (dose: 400.0 mg/kg/injection, schedule: Q01DX001 (ip), vehicle: carboxymethylcellulose (CMC)) is 104 % of control.

Regarding `O=C(O)c1ccccc1/C=C/c1ccc([N+](=O)[O-])cc1`, under setting [16], the T/C is 97 % of control.

On to `Cc1c(Cl)cccc1NC(=O)Nc1ccccc1Cl`, for which the T/C under setting [3] was 104 % of control; the T/C under setting [4] was 92 % of control; the T/C (dose: 200.0 mg/kg/injection, schedule: Q01DX009 (ip), vehicle: Klucel (hydroxypropylcellulose) (HPC)) was 103 % of control; the T/C under setting [5] is 91 % of control; the T/C (dose: 400.0 mg/kg/injection, schedule: Q01DX009 (ip), vehicle: Klucel (hydroxypropylcellulose) (HPC)) is 100 % of control; the T/C under setting [15] was 92 % of control.

As to `Nc1cc(Cl)c(N)c(N)n1`, the T/C runs as follows: under setting [16], 94 % of control; (dose: 200.0 mg/kg/injection, schedule: Q01DX001 (ip), vehicle: saline with Tween-80) 109 % of control; (dose: 400.0 mg/kg/injection, schedule: Q01DX001 (ip), vehicle: saline with Tween-80) 108 % of control.

Consider `SCc1ccc(Cl)cc1.[Pb]`, for which the T/C runs as follows: (dose: 100.0 mg/kg/injection, schedule: Q04DX002 (ip), vehicle: gum acacia) 88 % of control; (dose: 200.0 mg/kg/injection, schedule: Q04DX002 (ip), vehicle: gum acacia) 98 % of control; (dose: 400.0 mg/kg/injection, schedule: Q04DX002 (ip), vehicle: gum acacia) 109 % of control.

`Cc1nc2cc(Cc3ccccc3)ccc2o1`: the T/C is 107 % of control under setting [12], 105 % of control under setting [13] and 107 % of control under setting [14].

`O=C(CC1CCCCC1O)Nc1ccccc1` (stereo not given): the T/C runs as follows: (dose: 50.0 mg/kg/injection, schedule: Q01DX001 (ip), vehicle: saline) 97 % of control; under setting [6], 95 % of control; under setting [7], 101 % of control; under setting [8], 97 % of control.
